Reference: publication PMC6920136 (Redox Biology, 2019)

Experiments:
[1] = molecular target: Duox1 (Homo sapiens, UniProt Q9NRD9); experiment: H2O2 synthesis assay in homogenates of HEK293T cells expressing Duox1/DuoxA1α; format: biochemical
[2] = molecular target: Duox2 (Homo sapiens, UniProt Q9NRD8); experiment: H2O2 synthesis assay in homogenates of HEK293T cells expressing Duox2/DuoxA2; format: biochemical
Sequence of Duox2 (Q9NRD8 26-1548): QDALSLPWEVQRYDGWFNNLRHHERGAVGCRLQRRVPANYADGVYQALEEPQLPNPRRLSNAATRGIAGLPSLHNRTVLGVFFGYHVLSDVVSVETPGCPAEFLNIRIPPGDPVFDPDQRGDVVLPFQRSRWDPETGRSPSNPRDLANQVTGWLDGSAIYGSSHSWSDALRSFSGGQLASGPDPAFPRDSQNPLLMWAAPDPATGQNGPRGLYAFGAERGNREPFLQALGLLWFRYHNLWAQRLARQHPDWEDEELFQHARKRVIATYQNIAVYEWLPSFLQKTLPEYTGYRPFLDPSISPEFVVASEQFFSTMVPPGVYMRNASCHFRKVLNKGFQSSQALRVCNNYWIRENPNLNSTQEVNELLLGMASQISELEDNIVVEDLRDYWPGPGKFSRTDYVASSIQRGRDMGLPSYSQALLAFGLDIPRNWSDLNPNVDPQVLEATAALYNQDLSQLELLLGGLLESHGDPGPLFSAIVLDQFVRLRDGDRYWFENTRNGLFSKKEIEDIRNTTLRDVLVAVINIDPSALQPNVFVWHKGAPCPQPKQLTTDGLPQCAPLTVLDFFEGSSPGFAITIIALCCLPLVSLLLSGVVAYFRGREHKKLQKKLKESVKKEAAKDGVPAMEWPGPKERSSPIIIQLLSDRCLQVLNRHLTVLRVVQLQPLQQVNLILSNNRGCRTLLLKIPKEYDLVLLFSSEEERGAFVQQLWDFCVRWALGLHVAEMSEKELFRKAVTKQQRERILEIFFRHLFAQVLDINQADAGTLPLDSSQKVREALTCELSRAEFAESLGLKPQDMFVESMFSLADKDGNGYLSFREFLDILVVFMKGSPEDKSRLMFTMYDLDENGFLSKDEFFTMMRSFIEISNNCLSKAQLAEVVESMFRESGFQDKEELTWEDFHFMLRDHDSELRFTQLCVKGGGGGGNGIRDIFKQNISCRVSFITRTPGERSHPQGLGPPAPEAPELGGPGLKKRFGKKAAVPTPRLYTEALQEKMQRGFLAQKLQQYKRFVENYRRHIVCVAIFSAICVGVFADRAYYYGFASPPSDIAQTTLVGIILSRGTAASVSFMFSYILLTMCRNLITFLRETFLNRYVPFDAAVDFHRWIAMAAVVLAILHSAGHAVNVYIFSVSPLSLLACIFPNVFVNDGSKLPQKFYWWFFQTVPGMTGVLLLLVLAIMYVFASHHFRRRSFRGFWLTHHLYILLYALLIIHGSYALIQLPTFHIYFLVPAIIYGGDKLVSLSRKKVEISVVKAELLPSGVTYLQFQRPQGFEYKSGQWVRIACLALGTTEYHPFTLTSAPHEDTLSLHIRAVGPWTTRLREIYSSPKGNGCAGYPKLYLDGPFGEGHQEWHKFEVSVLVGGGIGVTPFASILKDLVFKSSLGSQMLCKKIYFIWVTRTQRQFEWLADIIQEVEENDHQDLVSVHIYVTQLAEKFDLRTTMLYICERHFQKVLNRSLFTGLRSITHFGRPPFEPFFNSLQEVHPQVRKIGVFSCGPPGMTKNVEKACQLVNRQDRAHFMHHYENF
Sequence of Duox2 (Q1HG44 whole entry partner): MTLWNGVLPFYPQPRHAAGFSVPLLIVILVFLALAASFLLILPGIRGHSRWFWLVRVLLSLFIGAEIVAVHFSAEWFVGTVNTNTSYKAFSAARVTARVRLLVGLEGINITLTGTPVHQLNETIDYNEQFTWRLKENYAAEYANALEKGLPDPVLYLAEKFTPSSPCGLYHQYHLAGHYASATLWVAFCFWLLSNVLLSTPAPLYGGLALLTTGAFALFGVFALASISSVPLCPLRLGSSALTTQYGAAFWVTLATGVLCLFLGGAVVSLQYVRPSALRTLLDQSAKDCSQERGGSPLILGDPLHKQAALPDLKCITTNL

Sequence of Duox1 (Q9NRD9 22-1551): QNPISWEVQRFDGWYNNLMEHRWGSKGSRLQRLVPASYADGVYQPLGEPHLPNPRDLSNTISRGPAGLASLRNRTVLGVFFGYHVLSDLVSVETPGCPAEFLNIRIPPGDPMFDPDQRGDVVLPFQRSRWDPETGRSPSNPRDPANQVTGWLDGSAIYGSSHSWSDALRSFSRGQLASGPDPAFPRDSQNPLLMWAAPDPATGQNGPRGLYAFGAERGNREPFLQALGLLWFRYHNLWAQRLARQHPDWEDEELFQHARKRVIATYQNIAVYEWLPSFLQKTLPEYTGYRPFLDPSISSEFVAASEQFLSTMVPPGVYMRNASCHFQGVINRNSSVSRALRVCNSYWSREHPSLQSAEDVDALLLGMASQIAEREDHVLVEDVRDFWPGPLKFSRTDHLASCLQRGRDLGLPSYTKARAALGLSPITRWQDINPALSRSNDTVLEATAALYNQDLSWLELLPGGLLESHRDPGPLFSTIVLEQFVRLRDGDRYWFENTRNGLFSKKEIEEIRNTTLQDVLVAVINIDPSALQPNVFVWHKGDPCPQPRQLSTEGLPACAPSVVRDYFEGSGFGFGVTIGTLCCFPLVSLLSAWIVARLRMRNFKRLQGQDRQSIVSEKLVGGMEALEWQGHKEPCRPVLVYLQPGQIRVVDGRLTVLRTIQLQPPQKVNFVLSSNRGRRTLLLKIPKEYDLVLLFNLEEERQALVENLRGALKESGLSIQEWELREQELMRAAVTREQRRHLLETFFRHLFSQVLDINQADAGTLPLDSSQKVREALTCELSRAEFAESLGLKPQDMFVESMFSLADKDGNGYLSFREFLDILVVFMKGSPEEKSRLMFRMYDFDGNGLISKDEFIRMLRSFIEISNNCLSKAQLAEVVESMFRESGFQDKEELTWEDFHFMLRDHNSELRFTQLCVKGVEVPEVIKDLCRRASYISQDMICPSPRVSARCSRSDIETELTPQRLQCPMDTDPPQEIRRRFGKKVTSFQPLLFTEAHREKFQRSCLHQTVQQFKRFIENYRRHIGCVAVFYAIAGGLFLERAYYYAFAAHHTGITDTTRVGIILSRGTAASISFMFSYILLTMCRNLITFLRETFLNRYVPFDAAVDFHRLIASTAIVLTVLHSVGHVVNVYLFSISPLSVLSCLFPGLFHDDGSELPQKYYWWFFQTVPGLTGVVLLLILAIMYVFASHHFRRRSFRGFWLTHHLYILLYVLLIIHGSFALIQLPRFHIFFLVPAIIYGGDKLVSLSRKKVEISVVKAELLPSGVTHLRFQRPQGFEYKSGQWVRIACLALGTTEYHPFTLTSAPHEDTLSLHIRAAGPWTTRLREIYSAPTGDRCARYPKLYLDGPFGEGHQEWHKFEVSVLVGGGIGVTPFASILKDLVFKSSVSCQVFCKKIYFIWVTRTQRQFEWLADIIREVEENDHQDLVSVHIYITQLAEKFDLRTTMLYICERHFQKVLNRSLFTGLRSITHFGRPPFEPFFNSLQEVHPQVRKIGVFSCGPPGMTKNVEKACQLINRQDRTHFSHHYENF
Sequence of Duox1 (Q1HG43 whole entry partner): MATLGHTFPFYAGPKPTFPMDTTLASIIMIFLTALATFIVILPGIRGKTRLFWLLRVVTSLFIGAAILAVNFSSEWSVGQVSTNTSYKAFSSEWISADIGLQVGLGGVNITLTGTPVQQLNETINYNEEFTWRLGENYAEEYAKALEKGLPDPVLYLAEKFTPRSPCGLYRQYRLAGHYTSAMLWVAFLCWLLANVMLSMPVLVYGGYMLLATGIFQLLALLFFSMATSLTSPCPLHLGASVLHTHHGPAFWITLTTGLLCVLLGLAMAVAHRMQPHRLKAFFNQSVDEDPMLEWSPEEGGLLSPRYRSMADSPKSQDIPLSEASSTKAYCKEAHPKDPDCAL

N=C(N)Nc1nc2ccc(Cl)cc2[nH]1 [ClGBI, 5-chloro-2-guanidinobenzimidazole]
IC50 [1]: 140 µM | IC50 [2]: 110 µM
